Reference: patent US6737383B1, “Herbicidal oxadiazolidines” (priority 1999, dated 2004)

Assays:
morningglory = experiment: Test B pre/postemergence morningglory; format: in vivo, Ipomoea hederacea
How it was run: (§1)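 Herbicidal effect was estimated by eye on a ten-point control scale after plants spent twelve to sixteen days in a greenhouse following soil or foliar treatment. Foliar sprays targeted plants at one to four leaves; all doses were formulated in a non-phytotoxic solvent with surfactant.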

corn = experiment: Test B pre/postemergence corn; format: in vivo, Zea mays
How it was run: as §1

purple nutsedge = experiment: Test B pre/postemergence purple nutsedge; format: in vivo, Cyperus rotundus
How it was run: as §1

crabgrass = experiment: Test B pre/postemergence crabgrass; format: in vivo, Digitaria sanguinalis
How it was run: as §1

duck salad = experiment: Test B flood test duck salad; format: in vivo, Heteranthera limosa
How it was run: (§2)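 Each value is a visual injury score relative to controls, with 10 meaning complete control and 0 no effect. Evaluation took place twelve to sixteen days after the 2-leaf-stage plants were treated and kept in the greenhouse.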

wild oat = experiment: Test B pre/postemergence wild oat; format: in vivo, Avena fatua; conditions: for Plant response rating, Wild oats: Postemergence
How it was run: as §1

smallflower flatsedge = experiment: Test B flood test smallflower flatsedge; format: in vivo, Cyperus difformis
How it was run: as §2

blackgrass = experiment: Test B pre/postemergence blackgrass; format: in vivo, Alopecurus myosuroides
How it was run: as §1

pigweed = experiment: Test B pre/postemergence pigweed; format: in vivo, Amaranthus retroflexus; conditions: for Plant response rating, Redroot pigweed: Postemergence
How it was run: as §1

soybean = experiment: Test B pre/postemergence soybean; format: in vivo, Glycine max; conditions: for Plant response rating, Soybean: Postemergence
How it was run: as §1

sugar beet = experiment: Test B pre/postemergence sugar beet; format: in vivo, Beta vulgaris
How it was run: as §1

giant foxtail = experiment: Test B pre/postemergence giant foxtail; format: in vivo, Setaria faberii
How it was run: as §1

wheat = experiment: Test B pre/postemergence wheat; format: in vivo, Triticum aestivum; conditions: for Plant response rating, Wheat: Postemergence
How it was run: as §1

bamyardgrass = experiment: Test B flood test barnyardgrass; format: in vivo, Echinochloa crus-galli
How it was run: as §2

velvetleaf = experiment: Test B pre/postemergence velvetleaf; format: in vivo, Abutilon theophrasti; conditions: for Plant response rating, Velvetleaf: Postemergence
How it was run: as §1

surinam grass = experiment: Test B pre/postemergence surinam grass; format: in vivo, Brachiaria decumbens
How it was run: as §1

rape = experiment: Test B pre/postemergence rape; format: in vivo, Brassica napus
How it was run: as §1

cocklebur = experiment: Test B pre/postemergence cocklebur; format: in vivo, Xanthium strumarium
How it was run: as §1

bedstraw = experiment: Test B pre/postemergence bedstraw; format: in vivo, Galium aparine
How it was run: as §1

rice = experiment: Test B flood test rice; format: in vivo, Oryza sativa
How it was run: as §2

[1] = Postemergence, Rate 62 g/ha, scale of 0 to 10, 0 is no effect, 10 is complete control
[2] = Postemergence, Rate 125 g/ha, scale 0 to 10, 0 is no effect, 10 is complete control
[3] = Postemergence, Rate 500 g/ha, scale of 0 to 10 where 0 is no effect and 10 is complete control
[4] = Preemergence, Rate 62 g/ha, scale 0 to 10 (0 no effect, 10 complete control)
[5] = Preemergence, Rate 125 g/ha, scale 0 to 10, 0 is no effect, 10 is complete control
[6] = Preemergence, Rate 500 g/ha, scale of 0 to 10 where 0 is no effect and 10 is complete control
[7] = Rate 250 g/ha, Postemergence, scale of 0 to 10 where 0 is no effect and 10 is complete control
[8] = Rate 62 g/ha, flood test species, Pre-emergence, visual evaluation after twelve to sixteen days
[9] = Rate 125 g/ha, under heading Pre-emergence, flood test species, visual evaluation after twelve to sixteen days
[10] = Rate 250 g/ha, Pre-emergence (flood test species), scale 0 to 10, 0 is no effect, 10 is complete control
[11] = Rate 500 g/ha, Pre-emergence section of Table B, 0 to 10 scale (0 no effect, 10 complete control)
[12] = Rate 500 g/ha, scale of 0 to 10 where 0 is no effect and 10 is complete control
[13] = Rate 250 g/ha, scale of 0 to 10 where 0 is no effect and 10 is complete control

## CC(C)N(C(=O)n1oc(=O)n(C[Si](C)(C)C)c1=O)c1ccccc1 [Compound 577]
morningglory; [1]
  Morningglory plant response rating: 6
morningglory; [2]
  Morningglory plant response rating: 9
morningglory; [3]
  Plant response rating, Morningglory: 10
morningglory; [4]
  Morningglory plant response rating: 0
morningglory; [5]
  Morningglory plant response rating: 0
morningglory; Preemergence, Rate 250 g/ha
  Morningglory plant response rating (0 to 10 scale): 8
morningglory; [6]
  Morningglory plant response rating: 9
morningglory; [7]
  Plant response rating, Morningglory: 10
corn; [1]
  Corn plant response rating: 0
corn; [2]
  Corn plant response rating: 0
corn; [3]
  Plant response rating, Corn: 2
corn; [4]
  Corn plant response rating: 2
corn; [5]
  Corn plant response rating: 2
corn; Preemergence, Rate 250 g/ha
  Corn plant response rating (0 to 10 scale): 2
corn; [6]
  Corn plant response rating: 3
corn; [7]
  Plant response rating, Corn: 0
Purple nutsedge; [1]
  Nutsedge plant response rating: 0
Purple nutsedge; [3]
  Plant response rating, Nutsedge: 0
Purple nutsedge; [4]
  Nutsedge plant response rating: 0
Purple nutsedge; [5]
  Nutsedge plant response rating: 0
Purple nutsedge; Preemergence, Rate 250 g/ha
  Nutsedge plant response rating (0 to 10 scale): 0
Purple nutsedge; [6]
  Nutsedge plant response rating: 0
crabgrass; [1]
  Crabgrass plant response rating: 0
crabgrass; [2]
  Crabgrass plant response rating: 0
crabgrass; [3]
  Plant response rating, Crabgrass: 3
crabgrass; [4]
  Crabgrass plant response rating: 7
crabgrass; [5]
  Crabgrass plant response rating: 9
crabgrass; Preemergence, Rate 250 g/ha
  Crabgrass plant response rating (0 to 10 scale): 9
crabgrass; [6]
  Crabgrass plant response rating: 10
crabgrass; [7]
  Plant response rating, Crabgrass: 3
Duck salad; [8]
  Plant response rating, Ducksalad (0 to 10 scale, 0 is no effect, 10 is complete control): 0
Duck salad; [9]
  Ducksalad plant response rating (0 to 10 scale, 0 is no effect, 10 is complete control): 0
Duck salad; [10]
  Ducksalad plant response rating: 0
Duck salad; [11]
  Ducksalad plant response rating: 0
Wild oat; [12]
  Plant response rating, Wild oats: 0
Wild oat; [4]
  Wild oats plant response rating: 0
Wild oat; [5]
  Wild oats plant response rating: 0
Wild oat; Preemergence, Rate 250 g/ha
  Wild oats plant response rating (0 to 10 scale): 0
Wild oat; [6]
  Wild oats plant response rating: 0
Wild oat; [13]
  Plant response rating, Wild oats: 0
Smallflower flatsedge; [8]
  Plant response rating, S. Flatsedge (0 to 10 scale, 0 is no effect, 10 is complete control): 0
Smallflower flatsedge; [9]
  S. Flatsedge plant response rating (0 to 10 scale, 0 is no effect, 10 is complete control): 0
Smallflower flatsedge; [10]
  S. Flatsedge plant response rating: 0
Smallflower flatsedge; [11]
  S. Flatsedge plant response rating: 0
blackgrass; [1]
  Blackgrass plant response rating: 0
blackgrass; [2]
  Blackgrass plant response rating: 0
blackgrass; [3]
  Plant response rating, Blackgrass: 0
blackgrass; [4]
  Blackgrass plant response rating: 0
blackgrass; [5]
  Blackgrass plant response rating: 0
blackgrass; Preemergence, Rate 250 g/ha
  Blackgrass plant response rating (0 to 10 scale): 3
blackgrass; [6]
  Blackgrass plant response rating: 6
blackgrass; [7]
  Plant response rating, Blackgrass: 0
pigweed; [12]
  Plant response rating, Redroot pigweed: 0
pigweed; [4]
  Redroot pigweed plant response rating: 0
pigweed; [5]
  Redroot pigweed plant response rating: 0
pigweed; Preemergence, Rate 250 g/ha
  Redroot pigweed plant response rating (0 to 10 scale): 0
pigweed; [6]
  Redroot pigweed plant response rating: 0
pigweed; [13]
  Plant response rating, Redroot pigweed: 0
soybean; [12]
  Plant response rating, Soybean: 5
soybean; [4]
  Soybean plant response rating: 0
soybean; [5]
  Soybean plant response rating: 0
soybean; Preemergence, Rate 250 g/ha
  Soybean plant response rating (0 to 10 scale): 0
soybean; [6]
  Soybean plant response rating: 0
soybean; [13]
  Plant response rating, Soybean: 3
Sugar beet; [4]
  Sugarbeets plant response rating: 0
Sugar beet; [5]
  Sugarbeets plant response rating: 0
Sugar beet; Preemergence, Rate 250 g/ha
  Sugarbeets plant response rating (0 to 10 scale): 0
Sugar beet; [6]
  Sugarbeets plant response rating: 0
Sugar beet; [7]
  Plant response rating, Sugarbeets: 0
Giant foxtail; [1]
  Giant foxtail plant response rating: 0
Giant foxtail; [2]
  Giant foxtail plant response rating: 2
Giant foxtail; [3]
  Plant response rating, Giant foxtail: 8
Giant foxtail; [4]
  Giant foxtail plant response rating: 7
Giant foxtail; [5]
  Giant foxtail plant response rating: 8
Giant foxtail; Preemergence, Rate 250 g/ha
  Giant foxtail plant response rating (0 to 10 scale): 9
Giant foxtail; [6]
  Giant foxtail plant response rating: 10
Giant foxtail; [7]
  Plant response rating, Giant foxtail: 2
wheat; [12]
  Plant response rating, Wheat: 0
wheat; [4]
  Wheat plant response rating: 0
wheat; [5]
  Wheat plant response rating: 0
wheat; Preemergence, Rate 250 g/ha
  Wheat plant response rating (0 to 10 scale): 0
wheat; [6]
  Wheat plant response rating: 0
wheat; [13]
  Plant response rating, Wheat: 0
bamyardgrass; [8]
  Plant response rating, Barnyardgrass (0 to 10 scale, 0 is no effect, 10 is complete control): 0
bamyardgrass; [9]
  Barnyardgrass plant response rating (0 to 10 scale, 0 is no effect, 10 is complete control): 0
bamyardgrass; [10]
  Barnyardgrass plant response rating: 0
bamyardgrass; [11]
  Barnyardgrass plant response rating: 0
velvetleaf; [12]
  Plant response rating, Velvetleaf: 0
velvetleaf; [4]
  Velvetleaf plant response rating: 4
velvetleaf; [5]
  Velvetleaf plant response rating: 3
velvetleaf; Preemergence, Rate 250 g/ha
  Velvetleaf plant response rating (0 to 10 scale): 3
velvetleaf; [6]
  Velvetleaf plant response rating: 4
velvetleaf; [13]
  Plant response rating, Velvetleaf: 0
Surinam grass; [1]
  B. signalgrass plant response rating: 0
Surinam grass; [2]
  B. signalgrass plant response rating: 0
Surinam grass; [3]
  Plant response rating, B. signalgrass: 3
Surinam grass; [4]
  B. signalgrass plant response rating: 0
Surinam grass; [5]
  B. signalgrass plant response rating: 3
Surinam grass; Preemergence, Rate 250 g/ha
  B. signalgrass plant response rating (0 to 10 scale, 0 is no effect, 10 is complete control): 4
Surinam grass; [6]
  B. signalgrass plant response rating: 7
Surinam grass; [7]
  Plant response rating, B. signalgrass: 0
rape; [1]
  Rape plant response rating: 0
rape; [2]
  Rape plant response rating: 0
rape; [3]
  Plant response rating, Rape: 0
rape; [4]
  Rape plant response rating: 0
rape; [5]
  Rape plant response rating: 0
rape; Preemergence, Rate 250 g/ha
  Rape plant response rating (0 to 10 scale): 0
rape; [6]
  Rape plant response rating: 0
rape; [7]
  Plant response rating, Rape: 0
cocklebur; [1]
  Cocklebur plant response rating: 0
cocklebur; [2]
  Cocklebur plant response rating: 0
cocklebur; [3]
  Plant response rating, Cocklebur: 2
cocklebur; [4]
  Cocklebur plant response rating: 0
cocklebur; [5]
  Cocklebur plant response rating: 0
cocklebur; Preemergence, Rate 250 g/ha
  Cocklebur plant response rating (0 to 10 scale): 0
cocklebur; [6]
  Cocklebur plant response rating: 0
cocklebur; [7]
  Plant response rating, Cocklebur: 0
bedstraw; [2]
  Bedstraw plant response rating: 4
bedstraw; [4]
  Bedstraw plant response rating: 0
bedstraw; [5]
  Bedstraw plant response rating: 0
bedstraw; Preemergence, Rate 250 g/ha
  Bedstraw plant response rating (0 to 10 scale): 0
bedstraw; [6]
  Bedstraw plant response rating: 0
rice; [8]
  Plant response rating, Rice (0 to 10 scale, 0 is no effect, 10 is complete control): 0
rice; [9]
  Rice plant response rating (0 to 10 scale, 0 is no effect, 10 is complete control): 0
rice; [10]
  Rice plant response rating: 0
rice; [11]
  Rice plant response rating: 0
